“Also recorded” adds a separate entry of the source.
Key:
Lgr5^hi ISCs = experiment: Frequency of Lgr5hi ISCs by flow cytometry in rapamycin-treated mice; format: in vivo; conditions: Rapamycin 4 mg/kg daily i.p., 4 weeks, n=13-14, FIG. 3g
From the text: (§1) Mice were housed in the Unit for Laboratory Animal Medicine at the Whitehead Institute for Biomedical Research. Lgr5-EGFP-IRES-CreERT2 mice (Strain name: B6.129P2-Lgr5tm1(cre/ERT2)Cle/J, Stock Number: 008875) were purchased from Jackson Laboratories. UbiquitinC-CreERT2 mice were obtained from the Jackson Laboratory (Strain Name: B6; 129S-Tg(UBC-cre/ERT2)1Ejb/J, Stock Number: 007001). Rictor floxed mice were generated as described in^27 and backcrossed to C57BL/6 for at least 6 generations. TSC1^loxp/loxp mice were the generous gift of D. Kwiatkowski (Harvard Medical School) and backcrossed to C57BL/6 for at least 6 generations. Rosa26-CreERT2 mice (Rosa26 or R26) were obtained from the Jackson Laboratory (Strain 15 Name: B6.129-Gt(ROSA)26Sor^iml(cre/ERT2)Tyj/J, Stock Number 008463). CR was achieved by providing individual or paired mice a daily portion of a chow diet fortified with vitamins and minerals amounting to 60% of the daily food intake of their ad libitum counterparts^20. All adult mice used in CR experiments were between the ages of 10 to 24 weeks and were sacrificed prior to their daily feeding. Rictor or TSC1 was excised by treatment with tamoxifen suspended in corn or sunflower seed oil (Spectrum) at a concentration of 10 mg/mL, and 200 μl per 25 g of body weight was injected intraperitoneally into mice once daily for 5-7 days. […]

[1] = test system: Lgr5hi ISCs combined with Paneth cells; experiment: Organoid formation of Lgr5hi ISCs cocultured with Paneth cells from treated mice; format: in vivo; conditions: for organoid formation of ISCs combined with Paneth cells from rapamycin-treated mice vs vehicle/AL Paneth cells: n=3-5, FIG. 3l, FIG. 13c
From the text: (§2) Mice were housed in the Unit for Laboratory Animal Medicine at the Whitehead Institute for Biomedical Research. Lgr5-EGFP-IRES-CreERT2 mice (Strain name: B6.129P2-Lgr5tm1(cre/ERT2)Cle/J, Stock Number: 008875) were purchased from Jackson Laboratories. UbiquitinC-CreERT2 mice were obtained from the Jackson Laboratory (Strain Name: B6; 129S-Tg(UBC-cre/ERT2)1Ejb/J, Stock Number: 007001). Rictor floxed mice were generated as described in^27 and backcrossed to C57BL/6 for at least 6 generations. TSC1^loxp/loxp mice were the generous gift of D. Kwiatkowski (Harvard Medical School) and backcrossed to C57BL/6 for at least 6 generations. Rosa26-CreERT2 mice (Rosa26 or R26) were obtained from the Jackson Laboratory (Strain 15 Name: B6.129-Gt(ROSA)26Sor^iml(cre/ERT2)Tyj/J, Stock Number 008463). CR was achieved by providing individual or paired mice a daily portion of a chow diet fortified with vitamins and minerals amounting to 60% of the daily food intake of their ad libitum counterparts^20. All adult mice used in CR experiments were between the ages of 10 to 24 weeks and were sacrificed prior to their daily feeding. Rictor or TSC1 was excised by treatment with tamoxifen suspended in corn or sunflower seed oil (Spectrum) at a concentration of 10 mg/mL, and 200 μl per 25 g of body weight was injected intraperitoneally into mice once daily for 5-7 days. […] Mice were allowed to recover for at least 7 days after the last tamoxifen injection prior to any experiments. In vivo fate mapping in Lgr5-EGFP-IRES-reERT2; Rosa26loxpstoploxp-LacZ compound mice was done with a single injection of tamoxifen given at 200 μl per 25 g. As described previously^28, Rapamycin (LC Laboratories) was administered by intraperitoneal injection for 7 to 28 consecutive doses at 4 mg/kg. It was reconstituted in absolute ethanol at 10 mg/ml and diluted in 5% Tween-80 (Sigma) and 5% PEG-400 (Hampton Research) before injection. The final volume of all injections was 200 μl. Regular insulin (Lilly) was administered at 0.75 U/kg diluted in PBS 20 minutes prior to sacrificing fasted mice.
Small intestines were removed and the fat/mesentery was dissected away. The intestinal lumen was washed with ice cold PBS (Mg—/Ca—) using a 18 G feeding needle (Roboz FN-7905) until the intestines appeared white/pink. They were then opened longitudinally. The mucous was removed by gently rubbing the intestine between fingers in cold PBS. The intestines were cut into 3 to 5 mm fragments and placed into 50 ml conical tubes that were fill with ice cold 30 ml of PBS (Mg—/Ca—)/EDTA (10 mM). The samples were incubated and shook intermittently on ice for 30 minutes continuously discarding and replacing (at least 3 times) the supernatant. The fragments were then continually resuspended with ice cold 30 ml PBS (Mg—/Ca—)/EDTA (10 mM) and intermittently shook on ice for 10 minutes, discarding the supernatant again for 3 times. The fragments were resuspended again with ice cold 30 ml PBS (Mg—/Ca—)/EDTA (10 mM) and incubated and intermittently shook while waiting on ice for 20 to 40 minutes. The samples were then triturated with a 10 ml pipette 1 to 2 times, and the contents were filtered twice through a 70-μm mesh (BD Falcon) into a 50 ml conical tube to remove villous material and tissue fragments. […] Crypts were removed from this step for crypt culture experiments and embedded in matrigel with crypt culture media. For ISC isolation, the crypt suspensions were centrifuged for 5 minutes at 250 g (4 C or room temperature). The pellets were gently resuspended in 1.0 ml of undiluted TrypLE Express (Invitrogen)+120 μl of DNase I (10 U/μl, Roche) and transferred to 15 ml conical tubes. The samples were incubated in a 32° C. water bath for 1.25 to 2 minutes, were not titurated, and were then placed on ice. 12 ml of cold SMEM was added to each sample and were gently triturated twice. The samples were then centrifuged for 5 minutes at 250 g.

mTORC1 = biological target: T1, mTORC1 (Mus musculus, UniProt P26883+Q9JLN9); experiment: Phospho-S6 (P-S6) immunostain as mTORC1 reporter in intestine / sorted Paneth cells; format: in vivo, mice; conditions: overnight fasted mice treated before refeeding 5 hours, FIG. 2a
T1 construct: from tissue; host or cells: mouse small intestine sections, isolated crypts and sorted Paneth cells
From the text: as §2, with “mice. […]” for “mice.”

[2] = test system: enteroendocrine and goblet cells; experiment: Enteroendocrine (chromogranin A) and goblet cell (Alcian blue) differentiation; format: in vivo, mice; conditions: FIG. 6a-b
Method: Tissues were fixed in 10% formalin, paraffin embedded, and sectioned. Antigen retrieval was performed with Borg Decloaker RTU solution (Biocare Medical) in a pressurized Decloaking Chamber (Biocare Medical) for 3 minutes. Antibodies: rat anti-BrdU (1:2000; Abeam 6326), rabbit phospho-S6 Ser235/236 (1:500, CST 4858), rabbit cleaved caspase 3 (1:500; CST 9664), rabbit chromogranin A (1:3000, Abeam 15160), rabbit Lysozyme (1:2000; Thermo), rabbit Bst-1 (1:1000, Abeam 74301) and mouse Bst-1 (1:100 to 500, BD Pharmingen). For mouse Bst-1, the M.O.M (mouse on mouse) kit was used according to the manufacturer's instructions (Vector labs PK-2200). Biotin conjugated secondary donkey anti-rabbit or rat antibodies were used from Jackson ImmunoResearch. The Vectastain Elite ABC immunoperoxidase detection kit (Vector Labs PK-6101) followed by Dako Liquid DAB+ Substrate (Dako) was used for visualization. For immunofluorescence Alexa Fluor 568 secondary antibodies (Invitrogen) were used. All antibody incubations were performed with Common Antibody Diluent (Biogenex).

Paneth cells = experiment: Frequency of Paneth cells by flow cytometry in rapamycin-treated mice; format: in vivo; conditions: Rapamycin 4 mg/kg daily i.p., 4 weeks, n=13-14, FIG. 3h
From the text: as §1

## CO[C@H]1C[C@@H]2CC[C@@H](C)[C@@](O)(O2)C(=O)C(=O)N2CCCC[C@H]2C(=O)O[C@H]([C@H](C)C[C@@H]2CC[C@@H](O)[C@H](OC)C2)CC(=O)[C@H](C)/C=C(\C)[C@@H](O)[C@@H](OC)C(=O)[C@H](C)C[C@H](C)/C=C/C=C/C=C/1C [Rapamycin, sirolimus]
Lgr5^hi ISCs
  increase in frequency of ISCs vs vehicle: more than 1.5 fold
[1]; 4 mg/kg
  organoids per AL Lgr5hi ISC mixed with Paneth cells from treated mice, increase vs vehicle: ~2 fold
[1]; CR+R treated mice, FIG. 3j
  effect of combination of CR and rapamycin in ISC-Paneth cell coculture: non-additive
[1]; FIG. 3l
  direct effect on ISC function (clonogenicity of ISCs from treated vs vehicle mice): no direct effect on ISC function
[1]; FIG. 3m
  secondary organoid bodies derived from rapamycin-treated Paneth cells vs vehicle: larger and more complex
[1]; Paneth cells placed in nutrient rich media that activates mTORC1
  stability of augmented capacity of Paneth cells to promote ISC self-renewal: maintain their augmented capacity to promote ISC self-renewal
[1]
  organoid formation of ISCs combined with Paneth cells from rapamycin-treated mice vs vehicle/AL Paneth cells: significantly increased
[1]; listed as rapamycin
  organoid formation of ISCs combined with Paneth cells from rapamycin-treated mice vs vehicle/AL Paneth cells: prominent increase; also recorded: significantly increased
mTORC1
  mTORC1 activation (P-S6) in Paneth cells by feeding: blocked this activation
[2]
  effects on enteroendocrine and goblet cell differentiation: minimal effects
Paneth cells
  increase in frequency of Paneth cells vs vehicle: more than 1.5 fold

From US9532997B2, “Compositions and methods for promoting intestinal stem cell function” (Whitehead Institute for Biomedical Research, priority 2012, dated 2017)
